Experimental data: PMC10980815, “Cell surface patching via CXCR4-targeted nanothreads for cancer metastasis inhibition” (Nature Communications, 2024)

Columns and labels:
Assay in all cases: Dose-dependent chemokine receptor occupation assay
Assay type in all cases: binding, 4T1 murine cells
[1] = biological target: T1, CXCR7 (Mus musculus, UniProt P56485); settings: 4T1 cells, 0.1 nM to 1 mM, 1 h
T1 construct: endogenous in cells; host or cells: 4T1 murine breast cancer cells
Description: (§1) To validate the specificity of the BS (CXCR4-binding sequence) to CXCR4, a dose-dependent chemokine receptors occupation assay and a chemokine receptors competitive binding assay were conducted. […] Unoccupied chemokine receptors (CXCR4, CXCR7, CXCR2, CXCR5, and CCR4) on cell surface were stained with PE anti-human CD184/CXCR4 Antibody (1:300 dilution), anti-CXCR7-PE (1:300 dilution), anti-CXCR2-PE (1:300 dilution), anti-CXCR5-PE (1:300 dilution), and PE anti-human CD194/CCR4 Antibody (1:300 dilution) at 4 °C for 1 h, prior to flow cytometry analysis. In the chemokine receptors competitive binding assay, 4T1 cells (5 × 10^5 cells) were pre-blocked with PE anti-human CD184/CXCR4 Antibody (1:300 dilution), anti-CXCR7-PE (1:300 dilution), anti-CXCR2-PE (1:300 dilution), anti-CXCR5-PE (1:300 dilution), and PE anti-human CD194/CCR4 Antibody (1:300 dilution) at 4 °C for 1 h. Subsequently, these cells were treated with P-Cy5-BS-CM1-Cy5 (5 nM Cy5 equivalence) for 1 h. Following the treatments, cells were washed three times with PBS and subjected to flow cytometry analysis.

[2] = biological target: T2, CCR4 (Mus musculus, UniProt P51680); settings: 4T1 cells, 0.1 nM to 1 mM, 1 h
T2 construct: endogenous in cells; host or cells: 4T1 murine breast cancer cells
T2 sequence (P51680 1-360): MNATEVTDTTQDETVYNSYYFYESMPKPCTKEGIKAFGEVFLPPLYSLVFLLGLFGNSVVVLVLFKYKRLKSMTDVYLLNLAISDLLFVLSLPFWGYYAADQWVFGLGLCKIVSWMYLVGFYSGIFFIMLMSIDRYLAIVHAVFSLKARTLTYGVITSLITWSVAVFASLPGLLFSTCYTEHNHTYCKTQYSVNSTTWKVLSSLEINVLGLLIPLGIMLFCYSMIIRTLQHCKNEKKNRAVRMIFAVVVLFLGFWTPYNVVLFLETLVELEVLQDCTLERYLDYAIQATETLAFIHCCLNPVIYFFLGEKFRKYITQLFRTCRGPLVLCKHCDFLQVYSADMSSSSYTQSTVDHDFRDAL
Description: as §1

[3] = biological target: T3, CXCR2 (Mus musculus, UniProt P35343); settings: 4T1 cells, 0.1 nM to 1 mM, 1 h
T3 construct: endogenous in cells; host or cells: 4T1 murine breast cancer cells
T3 sequence (P35343 1-359): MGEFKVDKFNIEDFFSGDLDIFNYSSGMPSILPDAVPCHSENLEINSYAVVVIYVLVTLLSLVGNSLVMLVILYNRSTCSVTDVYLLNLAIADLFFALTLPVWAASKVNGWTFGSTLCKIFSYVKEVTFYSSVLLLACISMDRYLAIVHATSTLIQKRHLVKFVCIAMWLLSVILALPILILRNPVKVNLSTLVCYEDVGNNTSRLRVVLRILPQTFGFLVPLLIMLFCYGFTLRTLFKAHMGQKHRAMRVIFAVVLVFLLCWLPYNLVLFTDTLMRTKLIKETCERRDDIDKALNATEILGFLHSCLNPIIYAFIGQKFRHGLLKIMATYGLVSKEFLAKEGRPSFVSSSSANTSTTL
Description: as §1

[4] = biological target: T4, CXCR5 (Mus musculus, UniProt Q04683); settings: 4T1 cells, 0.1 nM to 1 mM, 1 h
T4 construct: endogenous in cells; host or cells: 4T1 murine breast cancer cells
T4 sequence (Q04683 1-374): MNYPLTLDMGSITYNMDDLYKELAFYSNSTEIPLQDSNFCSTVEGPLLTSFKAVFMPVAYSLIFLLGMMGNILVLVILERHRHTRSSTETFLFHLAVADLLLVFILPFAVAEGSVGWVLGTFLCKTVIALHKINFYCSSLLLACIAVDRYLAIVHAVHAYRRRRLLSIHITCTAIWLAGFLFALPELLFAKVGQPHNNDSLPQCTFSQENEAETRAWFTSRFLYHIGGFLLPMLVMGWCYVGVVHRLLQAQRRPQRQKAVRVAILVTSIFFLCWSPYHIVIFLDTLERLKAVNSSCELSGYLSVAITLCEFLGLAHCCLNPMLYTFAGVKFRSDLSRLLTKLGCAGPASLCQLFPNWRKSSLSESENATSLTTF
Description: as §1

[5] = biological target: T5, CXCR4 (Mus musculus, UniProt P70658); settings: 4T1 cells, 0.1 nM to 1 mM, 25 °C, 1 h; unoccupied receptor stained with PE antibody
T5 construct: endogenous in cells; host or cells: 4T1 murine breast cancer cells
Description: as §1

T5 sequence (P70658 whole entry): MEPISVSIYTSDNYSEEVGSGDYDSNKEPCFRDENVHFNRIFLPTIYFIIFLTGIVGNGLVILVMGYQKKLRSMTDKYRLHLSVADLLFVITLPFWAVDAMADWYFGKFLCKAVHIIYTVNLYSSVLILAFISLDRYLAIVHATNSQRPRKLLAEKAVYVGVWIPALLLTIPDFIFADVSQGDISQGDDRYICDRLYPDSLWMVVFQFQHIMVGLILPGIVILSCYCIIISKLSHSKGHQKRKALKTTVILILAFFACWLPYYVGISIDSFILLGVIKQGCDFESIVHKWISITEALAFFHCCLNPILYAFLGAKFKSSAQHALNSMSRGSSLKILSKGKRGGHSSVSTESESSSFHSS
T1 sequence (P56485 whole entry): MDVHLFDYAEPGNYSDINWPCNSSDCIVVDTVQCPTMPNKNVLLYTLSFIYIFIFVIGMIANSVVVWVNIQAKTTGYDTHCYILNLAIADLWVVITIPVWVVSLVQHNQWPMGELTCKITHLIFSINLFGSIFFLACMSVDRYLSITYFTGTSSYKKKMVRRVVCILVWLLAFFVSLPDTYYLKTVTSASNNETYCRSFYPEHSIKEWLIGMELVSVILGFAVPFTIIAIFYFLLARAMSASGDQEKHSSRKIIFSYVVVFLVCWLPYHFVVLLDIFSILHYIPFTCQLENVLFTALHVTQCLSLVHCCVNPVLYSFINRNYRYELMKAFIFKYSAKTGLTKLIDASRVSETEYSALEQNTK

## LGASWHRPDKCCLGYQKRPLPA [Free BS]
[1]
  CXCR7 occupation: did not occupy
[2]
  CCR4 occupation: did not occupy
[3]
  CXCR2 occupation: did not occupy
[4]
  CXCR5 occupation: did not occupy
[5]
  CXCR4 occupation: comparable CXCR4 occupation to AMD3100
